Key:
[1] = system: HRV type 1A; experiment: Inhibition of viral cytopathic effect (CPE), visual scoring or neutral red, HRV type 1A in MRC-5 cells; format: cell-based, human rhinovirus; conditions: for Activity on Rhinovirus Type 1A EC50: HRV type 1A in MRC-5 cells, CPE inhibition; for Activity on Rhinovirus Type 1A SI: selectivity index = CC50 or MTC divided by EC50, HRV type 1A, MRC-5 cells
[2] = system: HRV type 2; experiment: Inhibition of viral cytopathic effect (CPE), visual scoring or neutral red, HRV type 2 in KB cells; format: cell-based, human rhinovirus; conditions: for Activity on Rhinovirus Type 2 EC50: HRV type 2 in KB cells, CPE inhibition; for Activity on Rhinovirus Type 2 SI: selectivity index = CC50 or MTC divided by EC50, HRV type 2, KB cells
[3] = system: human embryo lung (MRC-5) cells; experiment: Cytotoxicity (CC50 or MTC) in uninfected MRC-5 cells; conditions: unit not given
[4] = system: Rhinovirus Type 14; format: cell-based, human rhinovirus; conditions: HRV-14

Compound	Activity on Rhinovirus Type 1A EC50 [1] [µg/mL]	Activity on Rhinovirus Type 1A SI [1]	Activity on Rhinovirus Type 2 EC50 [2] [µg/mL]	Activity on Rhinovirus Type 2 SI [2]	Activity on Rhinovirus Type 1A MTC [3]	Activity on Rhinovirus Type 14 EC50 [4] [µg/mL]
CON=Cc1cc(C)c(OCCCc2cc(C)no2)c(C)c1 [Compound 22]	<0.16	>320	<0.05	>400	36.0	–
C=CCON=Cc1cc(C)c(OCCCc2cc(C)no2)c(C)c1 [Compound 23]	<0.16	>320	<0.05	>340	>50	–
Cc1cc(CCCOc2c(C)cc(C=NOCc3ccccc3)cc2C)on1 [Compound 25]	0.36	>139.4	0.5	34	>50	–
CCON=Cc1ccc(OCCC2CCN(c3ccc(OC)nn3)CC2)cc1 [Compound 26]	0.077	>13.0	0.16	>6	>1	–
CCON=Cc1ccc(OCCN2CCN(c3ccc(Cl)nn3)CC2)cc1 [Compound 27]	0.017	>59.6	0.1	>10	>1	–
CCON=Cc1ccc(OCC2CCCN(c3ccc(Cl)nn3)C2)cc1 (stereo not drawn) [Compound 28]	0.180	>5.5	0.06	>17	>1	–
CCON=Cc1ccc(OCC2CCN(c3ccc(Cl)nn3)CC2)cc1 [Compound 31]	0.017	>59.6	0.003	>333	>1	–
CCON=Cc1ccc(OCCCC2CCN(c3ccc(Cl)nn3)CC2)cc1 [Compound 32]	0.222	>4.5	0.014	>70	>1	–
CCON=C(CC)c1ccc(OCCC2CCN(c3ccc(Cl)nn3)CC2)cc1 [Compound 34]	0.627	>1.59	0.7	>1	>1	–
CCON=Cc1ccc(OCCC2CCN(c3ccc(Cl)nn3)CC2)c([N+](=O)[O-])c1 [Compound 36]	0.009	99.4	0.03	>33	0.89	–
CCON=Cc1ccc(OCCC2CCN(c3ccc(Cl)nn3)CC2)cc1O [Compound 37]	0.010	>96.0	0.048	>21	>1	–
C=CCON=Cc1cc(O)cc(OCCC2CCN(c3ccc(Cl)nn3)CC2)c1 [Compound 40]	0.583	>1.72	0.4	>3	>1	–
CCON=Cc1cccc(OCCC2CCN(c3ccc(Cl)nn3)CC2)c1 [Compound 41]	0.016	>63.5	<0.001	>1000	>1	–
C=CCON=Cc1ccc(OCCC2CCN(c3ccc(Cl)nn3)CC2)c(C)c1 [Compound 43]	0.006	>170	0.01	>100	>1	–
CCON=Cc1cc(C)c(OCCC2CCN(c3ccc(Cl)nn3)CC2)c(C)c1 [Compound 45]	0.029	>34.0	0.03	>32	>1	–
CCON=Cc1ccc(OCCC2CCN(c3ccc(Cl)nn3)CC2)cc1 [Compound 57]	0.001	>56.3	0.00025	>400	>0.1	–
CCON=Cc1ccc(OCCCc2cc(C)no2)cc1 [Compound 108]	>1	–	0.6	>1	>1	–
CCON=Cc1ccc(OCCC2CCN(c3nnc(C(F)(F)F)s3)CC2)cc1 [Compound 154]	–	–	–	–	–	0.0514

Compound	Activity on Rhinovirus Type 1A EC50 [1] [µg/mL]	Activity on Rhinovirus Type 1A SI [1]	Activity on Rhinovirus Type 2 EC50 [2] [µg/mL]	Activity on Rhinovirus Type 2 SI [2]	Activity on Rhinovirus Type 1A MTC [3]	Activity on Rhinovirus Type 14 EC50 [4] [µg/mL]
CCON=Cc1ccc(OCCC2CCN(c3cnc(Cl)cn3)CC2)cc1 [Compound 160]	–	–	–	–	–	0.0502
CCO/N=C/c1c(C)cc(OCCC2CCN(c3ccc(C)nn3)CC2)cc1C [Compound 185]	–	–	–	–	–	0.0697
CO/N=C/c1c(C)cc(OCCC2CCN(c3ccc(C)nn3)CC2)cc1C [Compound 186]	–	–	–	–	–	0.0349
CCO/N=C/c1ccc(OCCC2CCN(c3ccc(C)nn3)CC2)cc1OC [Compound 187]	–	–	–	–	–	0.0103
CCO/N=C/c1ccc(OCCC2CCN(c3ccc(C)nn3)CC2)cc1C [Compound 188]	–	–	–	–	–	0.0032
CO/N=C/c1ccc(OCCC2CCN(c3ccc(C)nn3)CC2)cc1C [Compound 189]	–	–	–	–	–	0.0011
CCON=Cc1cc(C)c(OCCC2CCN(c3ccc(C)nn3)CC2)cc1C [Compound 190]	–	–	–	–	–	0.0593
CON=Cc1cc(C)c(OCCC2CCN(c3ccc(C)nn3)CC2)cc1C [Compound 191]	–	–	–	–	–	0.0256
CCON=Cc1ccc(OCCC2CCN(c3ccc(C)nn3)CC2)c(C)c1C [Compound 192]	–	–	–	–	–	0.0258
CON=Cc1ccc(OCCC2CCN(c3ccc(C)nn3)CC2)c(C)c1C [Compound 193]	–	–	–	–	–	0.0308
CCO/N=C/c1ccc(OCCCCN(C)c2ccc(Cl)nn2)cc1 [Compound 195]	–	–	–	–	–	0.038
CCON=Cc1ccc(OCCC2CCN(c3cccc(C)n3)CC2)cc1 [Compound 196]	–	–	–	–	–	0.0424
CO/N=C/c1ccc(OCCC2CCN(c3cncc(Cl)n3)CC2)cc1 [Compound 199]	–	–	–	–	–	0.0402
CO/N=C/c1ccc(OCCC2CCN(c3nc4ccccc4o3)CC2)cc1 [Compound 200]	–	–	–	–	–	0.021
CCO/N=C/c1ccc(OCCC2CCN(c3nc4ccccc4o3)CC2)cc1 [Compound 201]	–	–	–	–	–	0.0261
CO/N=C/c1ccc(OCCC2CCN(c3nc(OC)nc(OC)n3)CC2)cc1 [Compound 202]	–	–	–	–	–	0.0593
CCO/N=C/c1ccc(OCCC2CCN(c3nc(OC)nc(OC)n3)CC2)cc1 [Compound 203]	–	–	–	–	–	0.060

Reference: patent publication US7078403B1, “Antiviral agents” (Biota Scientific Management Pty Ltd., priority 1999, dated 2006)
